Data taken from patent US5071858A, “Antipsychotic benzothiopyranylamines” (Ciba-Geigy Corporation, priority 1990, dated 1991).

Key:
[1] = tested on: Sidman avoidance responding; assay: Sidman avoidance model; type: in vivo, squirrel monkey (Samiri sciureus); conditions: squirrel monkeys
Description: The test is carried out as follows: Adult male squirrel monkeys (Samiri sciureus, 700-1200 g) are trained to press a lever to delay by 20 sec. the delivery of a brief electrical footshock. If the animal fails to respond within a 20 sec. interval, brief (0.5 sec.) shocks (5 mA) are delivered every 20 sec. until the animal again presses the lever. The total number of avoidance responses and avoidance failures (shocks received) are recorded during the test session, which lasts 4 hours. The monkeys are tested two days per week, the first day serving as a baseline control. The test compound is administered orally in a cornstarch vehicle 10 min. prior to the start of the test session. […] An approximate dose ratio of three between avoidance blockade and induction of dyskinesias is found for the compound of example 1.

[2] = target: T1, serotonin-2 receptor (5HT-2 receptor) (Rattus norvegicus, UniProt P14842); assay: serotonin-2 receptor binding assay (3H-ketanserin displacement); conditions: frontal/parietal cortex membranes of male Sprague-Dawley rats
T1 construct: membrane preparations of frontal/parietal cortex from male Sprague-Dawley rats; from tissue; host or cells: frontal/parietal cortex membranes of male Sprague-Dawley rats
T1 sequence (P14842 whole entry): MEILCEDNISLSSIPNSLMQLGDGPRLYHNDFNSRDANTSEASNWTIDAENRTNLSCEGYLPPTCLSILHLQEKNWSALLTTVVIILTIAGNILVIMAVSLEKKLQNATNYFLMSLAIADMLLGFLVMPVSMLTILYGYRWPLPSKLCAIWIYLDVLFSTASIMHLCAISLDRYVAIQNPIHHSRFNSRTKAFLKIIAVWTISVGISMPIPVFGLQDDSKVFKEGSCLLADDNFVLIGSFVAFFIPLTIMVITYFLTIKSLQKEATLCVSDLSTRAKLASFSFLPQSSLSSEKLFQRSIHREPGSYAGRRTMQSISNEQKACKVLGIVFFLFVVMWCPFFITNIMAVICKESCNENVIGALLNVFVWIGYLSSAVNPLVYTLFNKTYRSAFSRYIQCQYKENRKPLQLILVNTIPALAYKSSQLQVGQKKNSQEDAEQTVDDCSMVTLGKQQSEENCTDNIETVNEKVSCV
Description: The compounds described above are active e.g. in the following test system indicative of serotonin-2 receptor antagonism: The serotonin-2 receptor (also named 5-hydroxytryptamine-2 or 5HT-2 receptor) binding properties are determined in vitro by measuring the ability of said compounds to inhibit the specific binding of ^3 H-ketanserin in membrane preparations of frontal/parietal cortex from male Sprague-Dawley rats essentially as described by
Battaglia et al. in Life Sciences 33, 2011 (1983). IC50 values, representing the concentration of compound required to displace 50% of ^3 H-ketanserin, are determined by log-logit analysis of the specific binding data. Illustrative of the invention, the compound of example 1 is effective in the serotonin-2 receptor binding assay having an […] value of about 5 nM.

How did the “dose ratio between avoidance blockade and induction of dyskinesias” value [1] turn out when `O=C(c1ccc(F)cc1)C1CCN(CC2CSc3ccc(F)cc3C2)CC1` (centres unmarked) [Example 1, 1-[(6-Fluoro-3,4-dihydro-2H-1-benzothiopyran-3-yl)methyl]-4-piperidinyl p-fluorophenyl ketone] was run?
Its value is “three”.

And the EC50 [2]?
Its EC50 is about 5 nM.
